This is an account of results in patent EP4793271A1, “NEUROPROTECTIVE AGENT” (National Center of Neurology and Psychiatry, priority 2023, dated 2025).

Assay [1] has as its target T1, nicotinamide phosphoribosyl transferase (NAMPT) (Homo sapiens, UniProt P43490).
T1 construct: purchased Medical & Biological Laboratories Co., Ltd. (MBL)
Nature of the assay: NAMPT activity measurement (NMN fluorescence detection). In kind it is biochemical. As to conditions: NAMPT recombinant protein, 10 µM Nam; for IC50: read-out: Evaluation on NAMPT inhibitory. Here is the method: The compound of the present invention was evaluated for the ability to influence the activity of nicotinamide phosphoribosyl transferase (NAMPT) which is an enzyme that metabolizes nicotinamide (Nam), not the target SARM1.
The enzymatic reaction of NAMPT was carried out by adding NAMPT recombinant protein (manufactured by Medical & Biological Laboratories Co., Ltd. (MBL)) to a reaction solution containing the substrate Nam, phosphoribosylpyrophosphate (PRPP), ATP, and the like (composition: […] (pH = 7.4), 2 µM ATP, 0.5 µM PRPP, 0.02% BSA, 2 µM DTT, 1.2 µM MgCl2, and 10 µM Nam). The amount of the reaction product NMN was detected by detecting the fluorescent signal of a fluorescent substance obtained through the reaction of 2-acetylbenzofuran with NMN using SpectraMax M2 (Molecular Devices) (excitation: 421 nm, fluorescence: 480 nm) (Moriya et al, Chemical Communications 2013, 49 11500). The test compound was added at final concentrations of 10 µM, 3 µM, 1 µM, 300 nM, 100 nM, 30 nM, 10 nM, and 3 nM to the NMN synthesis reaction system described above. The NMN-derived fluorescent signal was normalized against a control group and plotted as the function of the test compound concentrations, and the compound was evaluated for its NAMPT inhibitory effect by calculating IC50.
The IC50 value was evaluated as ∘ for ≥1 µM and as Δ for ≥0.1 µM.

Another assay concerns the target T2, hSARM1 (Homo sapiens, UniProt Q6SZW1).
T2 sequence (Q6SZW1 28-724): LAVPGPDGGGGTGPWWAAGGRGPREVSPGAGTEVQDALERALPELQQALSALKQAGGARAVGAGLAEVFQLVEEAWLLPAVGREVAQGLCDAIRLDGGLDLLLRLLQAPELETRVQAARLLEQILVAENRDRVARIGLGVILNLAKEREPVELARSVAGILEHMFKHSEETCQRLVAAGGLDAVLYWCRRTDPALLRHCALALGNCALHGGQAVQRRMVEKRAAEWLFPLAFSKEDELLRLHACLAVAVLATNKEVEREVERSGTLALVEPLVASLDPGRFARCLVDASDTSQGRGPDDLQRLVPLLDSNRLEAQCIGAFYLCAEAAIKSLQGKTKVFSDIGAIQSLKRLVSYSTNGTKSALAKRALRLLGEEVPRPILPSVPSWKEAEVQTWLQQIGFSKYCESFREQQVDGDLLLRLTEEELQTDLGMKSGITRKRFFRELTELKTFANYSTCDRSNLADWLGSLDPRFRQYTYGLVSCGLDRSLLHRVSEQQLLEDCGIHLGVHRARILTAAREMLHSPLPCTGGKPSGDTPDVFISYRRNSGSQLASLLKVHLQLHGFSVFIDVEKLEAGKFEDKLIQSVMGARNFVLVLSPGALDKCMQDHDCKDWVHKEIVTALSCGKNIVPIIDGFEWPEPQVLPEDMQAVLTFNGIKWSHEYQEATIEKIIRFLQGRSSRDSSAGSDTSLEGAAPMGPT
Description: Human SARM1 activity measurement in HEK293 cells transiently transfected with ΔN-hSARM1 (PC6 fluorescent probe). In kind it is cell-based. Further details: expressed in transfected cells; host or cells: HEK293, pcDNA3 expression vector. The settings on record: inhibition rate; compound 30 µM; PC6 50 µM; HEK293 cells expressing ΔN-hSARM1; approximately 48 hours from transfection; read-out: Evaluation on hSARM1 inhibitory. The procedure:
HEK293 cells cultured in a prepared medium of nicotinamide-free DMEM (Dulbecco's modified Eagle medium) supplemented with 10% FBS (BioSera), a 1% penicillin-streptomycin solution (FUJIFILM Wako Pure Chemical Corp.), 5 μM nicotinamide were inoculated at approximately 50,000 cells/well to a 96-well microplate, and the cells were cultured at 37°C under 5% CO2, transiently transfected on the next day with a pcDNA3 expression vector containing a DNA sequence (SEQ ID NO: 1) deficient in a mitochondrial targeting sequence encoded by an N-terminal 78-base sequence in cDNA encoding human sterile α- and armadillo-motif-containing protein (hSARM1) using PEI MAX(R) reagent (PolySciences Inc.), and forced to express ΔN-hSARM1 (SEQ ID NO: 2). Approximately 8 hours later, PC6, which reacts as a substrate of SARM1-specific base exchange reaction and functions as a fluorescent probe, was added thereto at a final concentration of 50 μM, and intracellular hSARM1 activity was measured (Li et al, eLife 2021 10: e67381). A compound for inhibitory activity evaluation was added at a final concentration of 30 μM at the same time with PC6, while dimethyl sulfoxide (Nacalai Tesque Inc.) was added to samples of a control group at the same time with PC6. The cells were incubated at 37°C under 5% CO2 for approximately 48 hours from transfection, followed by fluorescent signal measurement using SpectraMax M2 (Molecular Devices) (excitation: 405 nm, fluorescence: 525 nm, fluorescence cutoff: 515 nm). Results of this screening are reported as an inhibition rate (%) relative to a negative control defined as follows by using fluorescence intensity measured from a control group without transfection with ΔN-hSARM1 as a background whereas using fluorescence intensity measured from a control group transfected with ΔN-hSARM1 as the negative control. Inhibitory rate (%) = 100-(([…]-Background))/((Signalofthenegativecontrol-Background)) × 100 [formula] The nicotinamide-free medium was prepared so as to have the same composition as that of DMEM having known composition which is generally used in the art except for nicotinamide. […]

The test system of assay [2] is primary cultured cells of mouse fetus-derived dorsal root ganglia (DRGs). Nature of the assay: Suppression of axonal degeneration after axotomy in DRG explant culture. Format: cell-based. As to conditions: minimum concentration at which axonal degeneration was suppressed (DI 0.3 or less), 24 hours after axotomy; for minimal effective concentration: Mus musculus, read-out: Evaluation on protection against degeneration. The procedure:
The compound of the present invention was studied for its protective effect against axonal injury using primary cultured cells of mouse fetus-derived dorsal root ganglia (DRGs).
DRGs were collected from a fetus derived from an ICR mouse (13.5 days of pregnancy). DRGs were cultured using a plate coated by incubation with 0.1 mg/mL poly-L-lysine at 4°C for 24 hours or longer, washing with PBS, and then incubation with 2.5 µg/mL Cultrex Mouse Laminin I at 37°C for 4 to 6 hours.
One of DRGs collected was plated to each well of the coated 24-well plate. The DRG was cultured in a nicotinamide-free medium for neuron (supplemented with 10% FBS, 1 mM glutamine, 50 ng/mL NGF2.5S, and penicillin-streptomycin) for 24 hours at maximum from the start of culture and then cultured in a nicotinamide-free medium for neuron (supplemented with 2% MACS NeuroBrew-21, 50 ng/mL NGF2.5S, 1% Glutamax, 20 µM uridine, 20 µM 5-fluoro-2'-deoxyuridine, and penicillin-streptomycin) for 7 to 8 days.
The nicotinamide-free medium for neuron was prepared so as to have the same constituents as those of the composition published in a previously reported paper (Brewer et al., J. Neuroscience Research 35: 567-576) except for nicotinamide with reference to this composition.
The test compound is dissolved in DMSO and added to cells such that the final concentration of DMSO is 0.1% (1000-fold dilution). 10 mM, 1 mM, 100 µM, 10 µM, 1 µM, and 100 nM samples of the test compound are prepared and added at a 1000-fold dilution to cells.
Axotomy was carried out by scooping out a cell body portion of the cultured DRG with a chip for a micropipette. The test compound was added at the following concentrations (final concentration: 10 µM, 1 µM, 100 nM, 10 nM, 1 nM, and 100 pM) within 30 minutes after axotomy. The compound was evaluated for its protective effect against axonal degeneration by imaging (Leica DMIL microscope, 20× objective lens) the state of neurites 24 hours after axotomy and evaluating the degree of degeneration. The degree of degeneration was quantified using a program uniquely developed using the R language. A degeneration index (DI) was used as an indicator for the degree of degeneration, and the ratio of the area of a fragmented axon to the total area of axons was calculated as defined in the equation of Expression 2. Suppressed axonal degeneration was evaluated when the value of DI was 0.3 or less. The minimum concentration at which axonal degeneration was suppressed was determined for each compound. Degeneratioin index (DI) = (Degenerated axons)/(All axons) [formula]
The axonal protective activity was evaluated as A ≤ 0.01 µM, 0.01 µM < B ≤ 0.1 µM, and 0.1 µM < C ≤ 1 µM depending on the minimum concentration at which axonal degeneration was suppressed.

T1 sequence (P43490 whole entry, species assumed): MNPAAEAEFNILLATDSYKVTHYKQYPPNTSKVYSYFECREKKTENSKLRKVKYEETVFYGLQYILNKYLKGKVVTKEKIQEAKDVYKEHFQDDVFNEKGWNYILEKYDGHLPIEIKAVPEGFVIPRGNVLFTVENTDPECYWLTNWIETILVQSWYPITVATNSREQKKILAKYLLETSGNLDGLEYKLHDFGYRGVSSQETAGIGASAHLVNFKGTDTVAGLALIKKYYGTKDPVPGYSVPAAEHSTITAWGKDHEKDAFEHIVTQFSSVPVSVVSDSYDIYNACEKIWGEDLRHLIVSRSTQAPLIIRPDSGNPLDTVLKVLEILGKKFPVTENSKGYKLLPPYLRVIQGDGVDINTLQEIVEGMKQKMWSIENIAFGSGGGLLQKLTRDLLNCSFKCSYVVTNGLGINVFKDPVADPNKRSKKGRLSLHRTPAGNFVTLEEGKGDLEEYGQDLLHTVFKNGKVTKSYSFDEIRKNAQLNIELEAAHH

Take `O=C(NCCCCCCNC(=O)c1cncc(O)c1)c1cccnc1` [compound 57]: the IC50 in assay [1] was at least 100 nM. Also, the inhibition at 30 µM at hSARM1 is over 75%. Also, the minimal effective concentration in assay [2] fell in the range of 0.01 to 0.1 µM.

For the compound `COc1cccc(OCCOCCNC(=O)/C=C/c2cccnc2)c1` [compound 28], in assay [1], the IC50 is at least 100 nM. At hSARM1, the inhibition at 30 µM was over 75%. Further, in assay [2], the minimal effective concentration is at most 0.01 µM.

Turning to `CCC(CC)C(=O)Nc1ccc(CNC(=O)c2cccnc2)cn1` [Compound 163], in assay [1], the “Evaluation on NAMPT inhibitory” value is reported as “○”. Also, the inhibition at 30 µM at hSARM1 was over 25%. Moreover, the “Evaluation on protection against degeneration” value in assay [2] is recorded as “A (A ≤ 0.01 µM)”.

Take `O=C(NCc1ccc(NC(=O)c2ccc(-c3ccccc3)cc2)nc1)c1cccnc1` [Compound 128]: the “Evaluation on NAMPT inhibitory” value in assay [1] is listed as “○”. Also, the inhibition at 30 µM at hSARM1 was over 75%. Moreover, in assay [2], the minimal effective concentration was at most 0.01 µM.

`O=C(NCCCCCCCCOCCO)c1cccnc1` [compound 4]: in assay [1], the “Evaluation on NAMPT inhibitory” value is “○”. At hSARM1, the inhibition at 30 µM is over 75%. Also, the “Evaluation on protection against degeneration” value in assay [2] is reported as “A (A ≤ 0.01 µM)”.

Consider `O=C(/C=C/c1ccc(OC(F)(F)F)cc1)Nc1ccc(CNC(=O)c2cccnc2)cn1` [Compound 168], for which the “Evaluation on NAMPT inhibitory” value in assay [1] is reported as “○”. In addition, the inhibition at 30 µM at hSARM1 is over 50%. Also, the minimal effective concentration in assay [2] was at most 0.01 µM.

With `CCCC(=O)Nc1ccc(CNC(=O)c2cccnc2)cn1` [Compound 158], in assay [1], the “Evaluation on NAMPT inhibitory” value is on record as “○”. Also, the inhibition at 30 µM on hSARM1 is over 25%. The minimal effective concentration in assay [2] is at most 0.01 µM.

Take `O=C(NCc1ccc(NC(=O)c2cccc(C(F)(F)F)c2)nc1)c1cccnc1` [compound 82]: the “Evaluation on NAMPT inhibitory” value in assay [1] is “○”. Also, the inhibition at 30 µM on hSARM1 is over 75%. The minimal effective concentration in assay [2] is at most 0.01 µM.

Regarding `CC(=O)NCc1ccc(OCCOCCNC(=O)/C=C/c2cccnc2)cc1` [compound 22], in assay [1], the IC50 was at least 100 nM. For the same compound, on hSARM1, the inhibition at 30 µM is over 75%. Moreover, the minimal effective concentration in assay [2] was at most 0.01 µM.

On to `O=C(NCc1ccc(NC(=O)c2ccc(F)cc2)nc1)c1cccnc1` [Compound 117], for which the “Evaluation on NAMPT inhibitory” value in assay [1] was “○”. Besides, the inhibition at 30 µM at hSARM1 is over 75%. In assay [2], the minimal effective concentration is at most 0.01 µM.

In the case of `COc1cccc(OCCNC(=O)/C=C/c2cccnc2)c1` [compound 19], in assay [1], the IC50 is at least 100 nM. Also, at hSARM1, the inhibition at 30 µM is over 75%. Further, in assay [2], the minimal effective concentration was at most 0.01 µM.

As for `[N-]=[N+]=NCc1cccc(CNC(=O)c2cccnc2)n1` [compound 90], the “Evaluation on NAMPT inhibitory” value in assay [1] is on record as “○”. For the same compound, at hSARM1, the inhibition at 30 µM was over 10%.

Turning to `O=C(NCCN(CCNC(=O)c1cccnc1)C(=O)c1cccnc1)c1cccnc1` [compound 36], in assay [1], the “Evaluation on NAMPT inhibitory” value is given as “○”. Also, the inhibition at 30 µM on hSARM1 was over 10%.

Take `O=C(NCc1ccc(NS(=O)(=O)c2ccccc2)nc1)c1cccnc1` [compound 79]: the “Evaluation on NAMPT inhibitory” value in assay [1] was “○”. The inhibition at 30 µM on hSARM1 is over 10%.

Consider `CN(CCCCCCN(C)C(=O)c1cccnc1)C(=O)c1cccnc1` [compound 102], for which, in assay [1], the “Evaluation on NAMPT inhibitory” value was “○”. For the same compound, the minimal effective concentration in assay [2] was at most 0.01 µM.

Turning to `CN(C)c1ccc(/C=C/C(=O)Nc2ccc(CNC(=O)c3cccnc3)cn2)cc1` [Compound 181], the IC50 in assay [1] is at least 100 nM. The minimal effective concentration in assay [2] was at most 0.01 µM.

Turning to `O=C(NCc1cccc(CN2Cc3ccccc3C2=O)n1)c1cccnc1` [compound 92], the “Evaluation on NAMPT inhibitory” value in assay [1] is reported as “○”. The inhibition at 30 µM on hSARM1 was over 10%.

Regarding `O=C(NCc1cccc(CNC(=O)c2cc(F)cc(F)c2)n1)c1cccnc1` [Compound 152], the “Evaluation on NAMPT inhibitory” value in assay [1] was “○”. In addition, on hSARM1, the inhibition at 30 µM was over 25%.

With `O=C(/C=C/c1cccnc1)NCc1ccccc1NC(=O)/C=C/c1cccnc1` [compound 60], the “Evaluation on NAMPT inhibitory” value in assay [1] was “○”. On hSARM1, the inhibition at 30 µM is over 10%.

Turning to `O=C(Nc1ccccc1CCc1ccccc1NC(=O)c1cccnc1)c1cccnc1` [compound 100], the “Evaluation on NAMPT inhibitory” value in assay [1] was “○”. Moreover, the minimal effective concentration in assay [2] lay within 0.01 to 0.1 µM.
